Assay results: US9468209B2, “Method for eradicating weeds with derivatives of 3-acetyl-5-sec-butyl-4-hydroxy-3-pyrrolin-2-one” (priority 2012, dated 2016)

Tested on: Crofton weed
Test: Needle puncture pathogenic test on slightly wounded leaf of Crofton weed
Format: in vivo
Conditions: 50 μg/mL, 25° C., natural light; for Time of Disease spot / Average diameter of spot after 24 h: Crofton weed leaf; for Time / Average diameter of the damage spot after 24 h: salts, Crofton weed
Protocol: 3-acetyl-5-sec-butyl-4-hydroxy-3-pyrrolin-2-one analogs were dissolved in a small amount of methanol and diluted with water to a concentration of 5-100 μg/g. A pathogenic test was conducted by placing the toxic liquid on the slightly wounded leaf of Crofton weed with a needle. The test has shown that the pathogenic capability of 3-acetyl-5-sec-butyl-4-hydroxy-3-pyrrolin-2-one analogs with respect to Crofton weed increases with the increase of concentration. The spot diameter caused on the leaf of Crofton weed after 24 hours was 2 mm at 50 μg/g.
3-acetyl-5-sec-butyl-4-hydroxy-3-pyrrolin-2-one analogue (Table 3, compounds 10-57) was dissolved in small amount of methanol. The solution was then diluted with distilled water to a concentration of 50 μg/mL. Methanol solution with same concentration and pure distilled water were used as control of the experiment. A pathogenic test was conducted by placing the toxic liquid on the slightly wounded leaf of Crofton weed with a needle. The experiment was carried out at 25° C. under the natural light and each test was repeated 6 times. It was measure the diameter of the spot after 24 h. […] The size of the side chain also has an effect on their activity.
Fourteen salts of 3-acetyl-5-sec-butyl-4-hydroxy-3-pyrrolin-2-one analogs were dissolved in small amount of methanol and diluted with distilled water to a concentration of 50 μg/mL. Methanol/water mixture was also prepared and used as control. Needle puncture method was used for the test on the small pieces of Crofton weed. Each treatment was repeated six times or more. The test samples were kept under natural light at 25° C. for 24 hours. The diameters of damaged spot of the plant leaves were measured by vernier caliper.

| Molecule | Time of Disease spot | Average diameter of spot after 24 h | Time | Average diameter of the damage spot after 24 h |
| --- | --- | --- | --- | --- |
| CCCCC1(C)NC(=O)C(C(C)=O)=C1O (centres unmarked) [Compound 29] | 12.1 ± 3.75 h | 5.77 ± 1.15 mm | – | – |
| CCCC(C)C1NC(=O)C(C(C)=O)=C1O (centres unmarked) [Compound 31] | 10.8 ± 2.00 h | 5.93 ± 1.35 mm | – | – |
| CC(=O)C1=C(O)C(CCC(=O)O)NC1=O (centres unmarked) [Compound 35] | 26.4 ± 0.12 h | 1.27 ± 0.02 mm | – | – |
| CC(=O)C1=C(O)C(CC(N)=O)NC1=O (centres unmarked) [Compound 36] | 21.9 ± 0.23 h | 1.54 ± 0.07 mm | – | – |
| CC(=O)C1=C(O)C(CCC(N)=O)NC1=O (centres unmarked) [Compound 37] | 24 ± 0.08 h | 1.64 ± 0.25 mm | – | – |
| CCC(=O)C1=C(O)C(C(C)CC)NC1=O (centres unmarked) [Compound 42] | 19.4 ± 2.50 h | 2.24 ± 0.45 mm | – | – |
| CCC(C)C1NC(=O)C(C(=O)NCc2ccccc2)=C1O (centres unmarked) [Compound 49] | 23.2 ± 2.86 h | 2.47 ± 0.08 mm | – | – |
| CCC1NC(=O)C(C(C)=O)=C1O.[K] (centres unmarked) [f, Potassium salt of 3-acetyl-5-ethyl-4-hydroxy-1H-pyrrol-2(5H)-one] | – | – | 14.2 ± 2.00 h | 3.72 ± 0.28 mm |
| CCCC(C)C1NC(=O)C(C(C)=O)=C1[O-].[Na+] (centres unmarked) [m, Sodium salt of 3-acetyl-4-hydroxy-5-(Pentan-2-yl)-1H-pyrrol-2(5H)-one] | – | – | 8.5 ± 2.00 h | 8.27 ± 1.72 mm |
| Ammonium salt of 3-acetyl-5-ethyl-4-hydroxy-1H-pyrrol-2(5H)-one | – | – | 10.3 ± 1.50 h | 4.97 ± 1.01 mm |
| Calcium salt of 3-acetyl-5-ethyl-4-hydroxy-1H-pyrrol-2(5H)-one [g] | – | – | 18.7 ± 3.00 h | 2.29 ± 0.19 mm |
| Copper salt of 3-acetyl-5-ethyl-4-hydroxy-1H-pyrrol-2(5H)-one | – | – | 21.6 ± 3.05 h | 1.22 ± 0.25 mm |
| Iron salt of 3-acetyl-5-ethyl-4-hydroxy-1H-pyrrol-2(5H)-one [k] | – | – | 17.2 ± 0.95 h | 1.72 ± 0.15 mm |
| Magnesium (II) salt of 3-acetyl-5-ethyl-4-hydroxy-1H-pyrrol-2(5H)-one | – | – | 17.5 ± 1.50 h | 2.88 ± 0.10 mm |
| Manganese salt of 3-acetyl-5-ethyl-4-hydroxy-1H-pyrrol-2(5H)-one [i] | – | – | 14.3 ± 3.15 h | 3.24 ± 0.33 mm |
| Sodium salt of 3-acetyl-4-hydroxy-1H-pyrrol-2(5H)-one | – | – | 26 ± 7.30 h | 1.34 ± 0.08 mm |
| Sodium salt of 3-acetyl-4-hydroxy-5-(prop-1-enyl)-1H-pyrrol-2(5H)-one | – | – | 16.8 ± 1.85 h | 2.42 ± 0.05 mm |
| Sodium salt of 3-acetyl-4-hydroxy-5-methyl-1H-pyrrol-2(5H)-one [b] | – | – | 19.5 ± 0.5 h | 2.21 ± 0.18 mm |
| Sodium salt of 3-acetyl-4-hydroxy-5-propyl-1H-pyrrol-2(5H)-one | – | – | 10.2 ± 2.50 h | 5.07 ± 0.11 mm |
| Sodium salt of 3-acetyl-5-ethyl-4-hydroxy-1H-pyrrol-2(5H)-one | – | – | 14.5 ± 1.8 h | 3.11 ± 0.54 mm |
| Zinc salt of 3-acetyl-4-hydroxy-5,5-dimethyl-1H-pyrrol-2(5H)-one | – | – | 18.2 ± 2.50 h | 2.63 ± 0.06 mm |
| Zinc salt of 3-acetyl-5-ethyl-4-hydroxy-1H-pyrrol-2(5H)-one [j] | – | – | 15.1 ± 4.00 h | 2.91 ± 0.02 mm |
